Several values for one entry are separate records, joined by “and”; a condition that tells them apart may be missing. Equal entries are not always repeated.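 Five compound concentrations were applied to cells in 96-well plates for 48 hours; endpoints were derived by simple linear interpolation of the resulting dose-response curve. GI50 is the concentration that inhibits growth by half. TGI: concentration producing complete growth inhibition.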
How the values were obtained:
Test in all cases: NCI anticancer screen, dose series, 48 h
COLO 205 colon = test system: COLO 205 colon
NCI-H522 lung = test system: NCI-H522 lung
KM12 colon = test system: KM12 colon
OVCAR-5 ovarian = test system: OVCAR-5 ovarian
SK-MEL-5 melanoma = test system: SK-MEL-5 melanoma
MOLT-4 leukemia = test system: MOLT-4 leukemia
SK-MEL-28 melanoma = test system: SK-MEL-28 melanoma
MCF7 breast = test system: MCF7 breast
EKVX NSCLC = test system: EKVX NSCLC
SNB-19 CNS = test system: SNB-19 CNS

SMILES	GI50 (COLO 205 colon)	TGI (COLO 205 colon)	GI50 (NCI-H522 lung)	TGI (NCI-H522 lung)	GI50 (KM12 colon)	TGI (KM12 colon)	GI50 (OVCAR-5 ovarian)	TGI (OVCAR-5 ovarian)	GI50 (SK-MEL-5 melanoma)	TGI (SK-MEL-5 melanoma)	GI50 (MOLT-4 leukemia)	TGI (MOLT-4 leukemia)	GI50 (SK-MEL-28 melanoma)	TGI (SK-MEL-28 melanoma)	GI50 (MCF7 breast)	TGI (MCF7 breast)	GI50 (EKVX NSCLC)	TGI (EKVX NSCLC)	GI50 (SNB-19 CNS)	TGI (SNB-19 CNS)
CCOC(=O)c1c(CN2CCN(C)CC2)nc2ccc(Cl)cc2c1-c1ccccc1	1.71 µM	3.57 µM	11.7 µM	25.3 µM	6.76 µM	19.1 µM	10.8 µM	25 µM	1.72 µM	3.18 µM	2.92 µM	12.9 µM	1.74 µM	3.19 µM	4.15 µM	16.6 µM	8.02 µM	25 µM	12.7 µM	25.6 µM
CCOC(=O)/C(=C\c1ccc2ccccc2c1)P(=O)(OCC)OCC	2.26 µM	4.89 µM	1.52 µM	3.35 µM	3.08 µM	10.9 µM	3.95 µM	13.9 µM	2.55 µM	6.5 µM	2.16 µM	6.25 µM	2.95 µM	8.06 µM	2.14 µM	7.12 µM	4.28 µM	16 µM	4.45 µM	18.6 µM
COc1cc2c3cc1Oc1c(OC)c(OC)cc4c1C(Cc1ccc(O)c(c1)Oc1ccc(cc1)CC3N(C)CC2)N(C)CC4 (stereo not given)	14.3 µM	> 100 µM and 30.4 µM	13.4 µM	> 100 µM and 30.4 µM	14.2 µM	65.8 µM and 31.8 µM	8.3 µM	> 100 µM and 62.4 µM	11 µM	52 µM and 23.3 µM	12.1 µM	> 100 µM and 54.9 µM	8.49 µM	> 100 µM and 23.1 µM	11.5 µM	> 100 µM and 66.8 µM		> 100 µM	31.5 µM	65.8 µM and > 100 µM
CCOC1Oc2ccc(C)cc2C(=O)/C1=C\Nc1ccc(S(N)(=O)=O)cc1 (stereo not given)	16.8 µM	45.3 µM	> 50 µM	> 50 µM	12 µM	32.5 µM	0.0219 µM	14.1 µM	7.79 µM	17.3 µM	13.9 µM	> 50 µM	14.5 µM	> 50 µM	15.9 µM	> 50 µM	9.43 µM	31.4 µM	16.1 µM	> 50 µM
N#[N+]c1ccc(Nc2ccccc2)cc1	> 50 µg/mL	> 50 µg/mL	> 50 µg/mL	> 50 µg/mL	3.11 µg/mL	> 50 µg/mL	> 50 µg/mL	> 50 µg/mL	> 50 µg/mL	> 50 µg/mL	> 50 µg/mL	> 50 µg/mL	> 50 µg/mL	> 50 µg/mL	> 50 µg/mL	> 50 µg/mL	> 50 µg/mL	> 50 µg/mL	> 50 µg/mL	> 50 µg/mL
Cc1cc(S(N)(=O)=O)c(S/C(=N\NS(=O)(=O)c2ccccc2)c2ccc(Cl)cc2)cc1Cl	97.8 µM	> 100 µM	23.2 µM	87.7 µM	> 100 µM	> 100 µM	> 100 µM	> 100 µM	67.9 µM	> 100 µM	34.4 µM	> 100 µM	> 100 µM	> 100 µM	75.3 µM	> 100 µM	> 100 µM	> 100 µM	> 100 µM	> 100 µM
COc1ccccc1NC(=O)C1=C(C)NC(C)=C(C(=O)Nc2ccccc2OC)C1c1ccco1		23 µM		8.6 µM		> 38.4 µM		> 100 µM		15.4 µM		52.7 µM		> 92 µM		> 100 µM		> 83.7 µM		67.6 µM
Nc1ncc2ncn(C3CCC(CO)O3)c2n1 (stereo not given)		> 100 µM		> 100 µM		> 100 µM		> 100 µM		> 100 µM		> 100 µM		> 100 µM		> 100 µM		> 100 µM		> 100 µM
Nn1c(-c2ccc(Cl)cc2)nc2c(-c3ccc(Cl)cc3)nc3ccc(Cl)cc3c2c1=O	19.5 µM	> 100 µM	20.9 µM	> 100 µM	> 100 µM	> 100 µM	> 100 µM	> 100 µM	56.6 µM	> 100 µM	4.67 µM	> 100 µM	49.6 µM	> 100 µM	4.1 µM	> 100 µM	5.86 µM	> 100 µM	9.06 µM	47.7 µM
CC1OC(OC2C(O)C(O)C(O)C(O)C2O)C(N)CC1N=C(N)C(=O)O (stereo not given)		> 100 µM		> 100 µM		> 100 µM		> 100 µM		> 100 µM		> 100 µM		> 100 µM		> 100 µM		> 100 µM		> 100 µM
C=CC(=O)Nc1cc2c(Nc3ccc(F)c(Cl)c3)ncnc2cc1C#CC(C)(C)N1CCN(C)CC1	2.09 µM	5.43 µM	0.456 µM	2.28 µM	2.36 µM	5.75 µM	1.04 µM	6.17 µM	4.69 µM	7.42 µM	1.05 µM	5.16 µM	3.1 µM	5.67 µM	0.995 µM	3.17 µM	0.246 µM	4.39 µM	3.58 µM	5.05 µM
Clc1ccc(CN2CCCN(Cc3ccc(Cl)cc3)C2c2cc3ccccc3c3ccccc23)cc1		40.3 µM		51 µM		> 100 µM		> 100 µM		32.7 µM		> 100 µM		54.5 µM		> 100 µM		> 100 µM		> 100 µM
NCCCN=c1ccc2c3c1c(O)c1c(O)ccc(=O)c1c3[nH]n2CCNCCO	1.61 µM	5.91 µM and 6.96 µM	0.55 µM	4.69 µM and 3.28 µM	1.88 µM	11.6 µM and 39 µM		17.4 µM and 17.2 µM	0.706 µM	3.61 µM and 4.11 µM	0.343 µM	7.68 µM and 19.4 µM	5.48 µM and 6.41 µM		0.796 µM	21.5 µM and 11.2 µM	6.08 µM and 4.62 µM	17.9 µM and 42 µM	0.821 µM	6.57 µM and 14.1 µM
COc1cc2c3c(n(CCCNCCCNCCCN)c(=O)c2cc1OC)-c1cc2c(cc1C3=O)OCO2	46.1 µM	> 100 µM	> 100 µM	> 100 µM	> 100 µM	> 100 µM			> 100 µM	> 100 µM	21.2 µM	> 100 µM	> 100 µM	> 100 µM	> 100 µM	> 100 µM	> 100 µM	> 100 µM	> 100 µM	> 100 µM
